Assays:
Format in all cases: in vivo
[1] = system: brown stink bug, Euschistus heros; test: Bean piece dip bioassay against brown stink bug; conditions: single active
Method: (§1) The active compositions were formulated in a 10% acetone solution with 0.025% non-ionic surfactant, TWEEN® 20. Bean pieces (about one inch-long) were used for the tests. Four bean pieces were placed in each tested active solution and left there for 10 minutes. Bean pieces were taken out of the active solution, and each piece was placed in a well in a 32-well tray and allowed to air dry. Three third-instar nymphs of brown stink bug, Euschistus heros, were infested into each well.
A pesticidal composition formulated in a 10% acetone solution with 0.025% non-ionic surfactant, TWEEN® 20 were tested against brown stink bugs, Euschistus heros, according to the procedure described in example 8A.

[2] = system: Western flower thrips, Frankliniella occidentalis; test: Cotton leaf punch dip bioassay against Western flower thrips; conditions: single active
Method: (§2) The active compositions were formulated in a 10% acetone solution with 0.025% non-ionic surfactant, TWEEN® 20. Cotton leaf punches were used for bioassays. Two cotton leaf punches were placed in each solution and left there for 10 minutes. Leaves were taken out of the solution, placed on a piece of filter paper in separated Petri dishes, and air dried. Each leaf disc was considered a repetition. Five nymphs of Western flower thrips, Frankliniella occidentalis, were infested per repetition.
as §2, with “compounds” for “compositions”

[3] = system: diamondback moth, Plutella xylostella; test: Cabbage plant track-sprayer bioassay against diamondback moth; conditions: single active, 0.0025 weight %, second instar
Method: A pesticidal composition was prepared by thoroughly mixing about 0.04 weight % of N-(3-chloro-1-(pyridin-3-yl)-1H-pyrazol-4-yl)-N-ethyl-3-((3,3,3-trifluoropropyl)sulfinyl) propanamide (hereinafter “compound II”) with about 0.000156 weight % of chlorpyrifos.
The bioassays were performed for different active compounds. Cabbage plants with about two to three new-growth-true leaf stage were treated with different active compounds using a track sprayer application at 400 L/Ha spray volume. Three second instar diamondback moth, Plutella xylostella, were infested onto each leaf disc. The percent control of the pesticidal composition against diamondback moth, Plutella xylostella, was determined as the “Observed” action, and compared to those obtained by using about 0.0025 weight % of compound II, and using about 0.0025 weight % of chlorpyrifos alone. The “Colby's Expected Action” was calculated using Colby's equation as discussed previously.

[4] = system: plant bugs, Lygus hesperus; test: Bean piece dip bioassay against Western plant bugs; conditions: single active
Method: as §1, with “Western plant bugs, Lygus hesperus,” for “brown stink bug, Euschistus heros,”

[5] = 0.04 weight %, third-instar nymphs

| SMILES | % Control Four Days After Treatment ([1]; 0.000156 weight %) [%] | % Control Four Days After Treatment ([1]; 0.000156 weight %, listed as chlorpyrifos) | % Control Four Days After Treatment ([1]; 0.000625 weight %) [%] | % Control Three Days After Treatment ([2]; 0.0000049 weight %) [%] | % Control Three Days After Treatment ([2]; 0.0000049 weight %, listed as chlorpyrifos) | % Control Three Days After Treatment ([2]; 0.0000195 weight %) [%] | % Control Three Days After Treatment ([2]; 0.0003125 weight %) [%] | % Control Three Days After Treatment ([2]; 0.00125 weight %) [%] | % Control Three Days After Treatment [3] | % Control Three Days After Treatment ([3]; listed as chlorpyrifos) | % Control Three Days After Treatment ([4]; 0.0003125 weight %) [%] | % Control Four Days After Treatment [1, 5] | % Control Three Days After Treatment ([2]; 0.04 weight %, nymphs) [%] | % Control Three Days After Treatment ([2]; 0.04 weight %, nymphs, listed as compound II) | % Control Three Days After Treatment [4, 5] [%] |
| --- | --- | --- | --- | --- | --- | --- | --- | --- | --- | --- | --- | --- | --- | --- | --- |
| CCOP(=S)(OCC)Oc1nc(Cl)c(Cl)cc1Cl [Chlorpyrifos, O,O-diethyl O-3,5,6-trichloropyridin-2-yl phosphorothioate] | 0 | no activity | 92 | 0 | no activity | 20 | 70 | 80 | 0% | substantially no pesticidal activity | 50 |  |  |  |  |
| CCN(C(=O)CCSCCC(F)(F)F)c1cn(-c2cccnc2)nc1Cl [Compound I, N-(3-chloro-1-(pyridin-3-yl)-1H-pyrazol-4-yl)-N-ethyl-3-((3,3,3-trifluoropropyl)thio)propanamide] |  |  |  |  |  |  |  |  |  |  |  | no activity | 20 |  |  |
| CCN(C(=O)CC[S+]([O-])CCC(F)(F)F)c1cn(-c2cccnc2)nc1Cl (centres unmarked) [Compound II, N-(3-chloro-1-(pyridin-3-yl)-1H-pyrazol-4-yl)-N-ethyl-3-((3,3,3-trifluoropropyl)sulfinyl)propanamide] |  |  |  |  |  |  |  |  | substantially no pesticidal activity |  |  |  | 0 | no activity | 0 |

Reference: US9801383B2, “Synergistic pesticidal compositions and related methods” (priority 2013, dated 2017)
